This note sets out measurements from US11040937B2, “Amide derivative” (TOHOKU UNIVERSITY, priority 2014, dated 2021).

In the experiment the test system is OPN production in A549 cells. As to the kind of experiment: OPN production in culture supernatant by ELISA, per mg cell protein. It counts as cell-based, human. The following applies: for amount of the OPN production vs control group: 2 days, significance level less than 1%. The method, then: Brefelamide (Compound 1) was added to a culture liquid containing cells of human liver cancer-derived cell line HepG2, human non-small cell lung cancer-derived cell line A549, human renal cell carcinoma-derived cell line OUR-10, or human pancreatic cancer-derived cell line QGP-1, and the amount of OPN in the culture supernatant after 2 days was measured using Human Osteopontin Immunoassay kit (R&D systems). The confirmation test was performed by comparison of the OPN amount of Compound 1-treated group with that of DMSO-treated group (control group). In addition, Compounds 6, 19, 26, and 38 which are brefelamide derivatives were added to a culture liquid containing cells of human non-small cell lung cancer-derived cell line A549, and a similar confirmation test to the above-mentioned test was performed.
Compounds 1, 6, 19, 26, and 38 have also a cell growth inhibitory effect. Thus, in order to properly evaluate the inhibitory effect of the compounds on the OPN production, the 1×CCLR solution used in luciferase assay was added to cells remaining in each well after removal of culture supernatant to prepare a cell lysate, and the amount of protein in the cell lysate was measured using BCA Protein Assay Kit (Thermo Scientific). The influence of Compound 1 on the amount of the OPN production was evaluated by comparison of the amount of OPN per milligram of protein.
HepG2 cells or A549 cells were suspended in DMEM medium containing 10% FCS and 1% P/S at 4×10^4 cells/mL to obtain a cell suspension, and the cell suspension was dispensed into each well of a 24-well plate in an amount of 500 μL. In order to perform the test in triplicate, 3 wells were prepared for each control group, and 3 wells were prepared for each test compound-treated group at each concentration. The 24-well Plate was incubated in a CO2 incubator (at 37° C., and 3% CO2) for 24±4 hours.
Compound 1, 6, 19, 26, and 38 which are test compounds were dissolved in DMSO to prepare a 50 mmol/L solution of each compound, and the solutions were stored at −80° C. The solution of Compound 1 was diluted with DMSO to prepare 2.5 mmol/L and 5 mmol/L solutions (FIG. 1), 3.125 mmol/L and 6.25 mmol/L solutions (FIG. 2), 6.25 mmol/L and 12.5 mmol/L solutions (FIG. 3), or 5 mmol/L and 10 mmol/L solutions (FIG. 4). The two solutions of Compound 1 at different concentrations were added in an amount of 2 μL per well to wells in which HepG2, A549, OUR-10, or QGP-1 cells were culture, respectively. Only DMSO was added in an amount of 2 μL to each control well.
Similarly, the 50 mmol/L solution of Compound 6 was stared at −80° C., and the solution was diluted with DMSO to prepare 2.5 mmol/L and 5 mmol/L solutions (FIG. 5). The two solutions of Compound 6 at different concentrations were added in an amount of 2 μL per well to wells in which A549 cells were cultured. Only DMSO was added in an amount of 2 μL to the control well.
Also, the 50 mmol/L solutions of Compounds 19, 26, and 38 were stored at −80° C., and each solution was diluted with DMSO to prepare 3.125 mmol/L and 6.25 mmol/L solutions (FIGS. 8 to 10). The two solutions of Compound 19, 26, or 38 at different concentrations were added in an amount of 2 μL per well to wells in which A549 cells were cultured, respectively. Only DMSO was added in an amount of 2 μL to each control well.
The 24-well plate was shaken to mix the solution in each well, and was then incubated in a CO2 incubator (at 37° C. and 5% CO2) for 48±4 hours. Then, the total amount of the resulting culture supernatant was transferred into a 1.5 mL tube, and D-PBS(−) (500 μL) was added to each well containing cells.
The 24-well plate was gently shaken to remove D-PBS(−), and then 5×CCLR used in luciferase assay was diluted to 5 times with water to prepare 1×CCLR. The prepared 1×CCLR was dispensed into each well in an amount of […]. The 24-well plate was then rocked on a rocking shaker for 15 minutes. […]
Background: ELISA stands for enzyme-linked immunosorbent assay.

[1] abbreviates: concentration increased from 12.5 μmol/L to 25 μmol/L.

Take `COc1ccc(Oc2cccc(NC(=O)CCNC(=O)c3ccc(O)cc3)c2)cc1` [Compound 26, N-(3-(3-(4-Methoxyphenoxy)phenylamino)-3-oxopropyl)-4-hydroxybenzamide]: the “OPN production, dependence on concentration” value (“OPN production, dependence” below) under setting [1] is recorded as “inhibited depending on the concentration”.
With `O=C(CCNC(=O)c1ccc(O)cc1)Nc1cccc(Oc2ccc(Cl)c(Cl)c2)c1` [Compound 38, N-(3-(3-(3,4-dichlorophenoxy)phenylamino)-3-oxopropyl)-4-hydroxybenzamide], the “amount of the OPN production vs control group” value (from here on “amount … vs control group”) by setting is: (12.5 μmol/L) “significantly inhibited”; (25 μmol/L) “significantly inhibited”. Besides, the “OPN production, dependence” value under setting [1] is reported as “inhibited depending on the concentration”.
As to `COc1ccc(Oc2cccc(C(=O)CCNC(=O)c3ccc(O)cc3)c2N)cc1` [Compound 6, N-(3-(2-Amino-3-(4-methoxyphenoxy)phenyl)-3-oxopropyl)-4-hydroxybenzamide], the “amount … vs control group” value is “significantly inhibited” (10 μmol/L) and “significantly inhibited” (20 μmol/L). The “OPN production, dependence” value (concentration increased from 10 μmol/L to 20 μmol/L) is listed as “inhibited depending on the concentration”.
On to `Nc1ccc(C(=O)NCCC(=O)c2cccc(Oc3ccc(Cl)cc3)c2N)cc1` [Compound 19, N-(3-(2-Amino-3-(4-chlorophenoxy)phenyl)-3-oxopropyl)-4-aminobenzamide], for which the “amount … vs control group” value by setting is: (12.5 μmol/L) “significantly inhibited”; (25 μmol/L) “significantly inhibited”. The “OPN production, dependence” value under setting [1] is listed as “inhibited depending on the concentration”.
